Where two headings read alike, the source gives them in different places.
Tests used:
[1] = target: human 20S-β5 (Hu20S PA28) (Homo sapiens, UniProt P28074); test: Kinetics of inhibition of human 20S proteasome β5 site in presence of PA28; assay type: biochemical
Mtb PrcAB-OG [2] = target: T1, Mtb PrcAB-OG (Mycobacterium tuberculosis, UniProt P9WHT9); test: biochemical; assay type: biochemical
T1 construct: made in house; host or cells: E. coli
Target sequence in this assay (P9WHT9 58-291): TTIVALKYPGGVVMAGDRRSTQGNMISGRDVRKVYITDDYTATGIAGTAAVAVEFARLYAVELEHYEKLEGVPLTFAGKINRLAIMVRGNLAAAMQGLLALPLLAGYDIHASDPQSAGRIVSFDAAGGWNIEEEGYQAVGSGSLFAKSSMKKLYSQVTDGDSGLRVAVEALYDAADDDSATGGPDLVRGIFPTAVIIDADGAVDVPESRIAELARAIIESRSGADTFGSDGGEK

α-chymotrypsin = α-chymotrypsin (Bos taurus, UniProt P00766); test: Inhibition of α-chymotrypsin; assay type: biochemical, mammalian
Description: The unique inactivation mechanism of oxathiazol-2-ones led to an examination of selectivity of these compounds among non-proteasomal proteases, such as chymotrypsin, trypsin, cathepsin B, and matrix metalloproteinase (MMP)-2, representatives of the serine-, cysteine-, and matrix metalloproteinase classes. […] In contrast to the proteasome's N-terminal Thr active site residue, chymotrypsin's active site Ser residue is positioned internally. Given the lack of a terminal NH2 group, the acyl-enzyme intermediate formed by reaction of oxathiazol-2-one with the γ-OH of chymotrypsin's active site Ser can undergo either aqueous hydrolysis to reactivate the enzyme or regeneration of oxathiazol-2-one by the released —OH or —SH group attacking —CO-γO-Ser.

Mtb proteasome [3] = target: T2, Mtb proteasome (Mycobacterium tuberculosis, UniProt P9WHT9); test: Preliminary inhibition studies of Mtb proteasome with oligopeptide substrates; assay type: biochemical
T2 construct: made in house; host or cells: E. coli

Mtb PrcAB-OG [4] = target: T1, Mtb PrcAB-OG; assay type: biochemical
Target sequence in this assay (P9WHT9 58-291): as above
Target sequence in this assay (P9WHU1 9-248 partner, looked up, natural form): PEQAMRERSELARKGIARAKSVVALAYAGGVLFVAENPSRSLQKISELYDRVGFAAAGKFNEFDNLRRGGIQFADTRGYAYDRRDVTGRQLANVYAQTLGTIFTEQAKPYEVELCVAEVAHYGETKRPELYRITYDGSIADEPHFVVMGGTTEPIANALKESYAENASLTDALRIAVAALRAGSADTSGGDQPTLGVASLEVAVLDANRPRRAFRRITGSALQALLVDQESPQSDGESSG

human proteasome = human proteasome (Homo sapiens, UniProt P28072+P28074+Q99436); test: Preliminary inhibition studies of human proteasome with oligopeptide substrates
[5] = tested on: human monocyte-derived macrophages; test: Cytotoxicity, human monocyte-derived macrophages; assay type: cell-based; settings: 7 days
Method: (§1) Given that proteasome-inhibiting oxathiazol-2ones killed mycobacteria, their impact on the survival of mammalian cells was tested. […] In contrast, less than 10% of Vero cells remained viable after 4-day exposure to 25 nM bortezomib. Finally, because most Mtb in nature resides in human macrophages, we exposed human monocyte-derived macrophages (mostly multinucleated giant cells) to 100 μM GL3, GL5 or GL6 for 7 days.

[6] = tested on: mouse macrophage-like RAW264.7 cells; test: Cytotoxicity, RAW264.7 cells; assay type: cell-based; settings: up to 50 μM, 4 days
Method: as §1

[7] = tested on: Vero monkey kidney epithelial cells; test: Cytotoxicity, Vero cells; assay type: cell-based; settings: for cytotoxicity: up to 50 μM, 4 days
Method: as §1

Mtb H37Rv = test: Mycobactericidal activity against Mtb (CFU); assay type: cell-based, Mycobacterium tuberculosis
human lung fibroblasts = test: Cytotoxicity, human lung fibroblasts; assay type: cell-based; settings: up to 50 μM, 4 days
Method: as §1

human skin fibroblasts = test: Cytotoxicity, human skin fibroblasts; assay type: cell-based; settings: up to 50 μM, 4 days
Method: as §1

M. bovis BCG = test: microbe, parasite or virus in culture; assay type: cell-based, Mycobacterium bovis BCG; settings: for reduction of colony forming units (CFU): cells exposed to DETA-NO 50 μM; for log reduction at 25 µM: Mycobacterium tuberculosis variant bovis BCG, BCG, 96 h, read-out: BCG killing (25 μM)
Mtb proteasome [8] = target: T2, Mtb proteasome; assay type: biochemical; settings: dialysis 18 hours against inhibitor-free buffer
[9] = target: proteasome in M. bovis BCG (Mycobacterium bovis, UniProt A1KKF3); test: cell-based; settings: read-out: intrabacterial proteasome inhibition
Mtb PrcAB-OG [10] = test: biochemical; assay type: biochemical, Mycobacterium tuberculosis
[11] = Table 1, read-out: kobs/[I] Mtb-OG
[12] = 50 μM, 4 days, Mtb exposed overnight to 100 μM DETA
[13] = 50 μM, 4 days, Mtb exposed overnight to 100 μM DETA-NO
[14] = Mycobacterium tuberculosis, H37RV, 96 h; read-out: Mtb killing (50 μM)

T2 sequence (P9WHT9 58-291): as the sequence (P9WHT9 58-291) above
T2 sequence (P9WHU1 9-248 partner, looked up, natural form): as the sequence (P9WHU1 9-248 partner, looked up, natural form) above
proteasome in M. bovis BCG, sequence (A1KKF3 whole entry, looked up): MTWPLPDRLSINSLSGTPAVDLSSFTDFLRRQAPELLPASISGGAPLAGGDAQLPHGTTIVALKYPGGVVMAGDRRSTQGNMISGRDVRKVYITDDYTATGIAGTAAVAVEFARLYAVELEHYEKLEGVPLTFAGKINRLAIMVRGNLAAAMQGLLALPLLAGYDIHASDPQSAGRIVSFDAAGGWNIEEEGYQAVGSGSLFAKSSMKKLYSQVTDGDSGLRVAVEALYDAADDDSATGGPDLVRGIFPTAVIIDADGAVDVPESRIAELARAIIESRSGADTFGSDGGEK

Compound: O=c1oc(-c2ccccc2)ns1 [HT1146]
- kinact/KI ([1]; read-out: kobs/[I] Hu20S PA28): 31.3 M⁻¹ s⁻¹
- kinact/KI (Mtb PrcAB-OG [2]; [11]): 409 M⁻¹ s⁻¹
- IC50 (α-chymotrypsin): 10 µM

Compound: O=c1oc(-c2cnccn2)ns1 [5-(pyrazin-2-yl)-1,3,4-oxathiazol-2-one]
- inhibition of Mtb proteasome (Mtb proteasome [3]): found to inhibit the Mtb proteasome, albeit less potently than GL5

Compound: Cc1cc(-c2nsc(=O)o2)c(S(C)(=O)=O)s1 [GL6]
- prevention of β-casein degradation by Mtb proteasome (Mtb PrcAB-OG [4]): but not GL6
- inhibition of human proteasome (human proteasome): inhibited neither
- morphologic sign of cytotoxicity ([5]; 100 μM): no morphologic sign of cytotoxicity
- cytotoxicity [6]: no evident cytotoxicity
- inhibition of Mtb proteasome (Mtb proteasome [3]): inhibited neither
- cytotoxicity [7]: no evident cytotoxicity
- reduction of number of CFU (Mtb H37Rv; [12]): did not lead to a reduction of CFU
- reduction of number of CFU (Mtb H37Rv; [13]): did not lead to a reduction of CFU
- cytotoxicity (human lung fibroblasts): no evident cytotoxicity
- cytotoxicity (human skin fibroblasts): no evident cytotoxicity

Compound: CSc1sc(C)cc1-c1nsc(=O)o1 [GL5]
- reduction of colony forming units (CFU) (M. bovis BCG; 25 μM, 4 days): 400 fold
- reduction of colony forming units (CFU) (M. bovis BCG; 50 μM, 4 days): more than 2000 fold
- log reduction at 25 µM (M. bovis BCG): > 2
- killing of BCG (M. bovis BCG; alone and with DETA-NO 50 μM, 4 days): able to kill BCG
- morphologic sign of cytotoxicity ([5]; 100 μM): no morphologic sign of cytotoxicity
- cytotoxicity [6]: no evident cytotoxicity
- reversibility of inactivation of human proteasome β5 subunit ([1]; plots of kobs vs [I] not passing through origin): reversible
- kinact/KI ([1]; read-out: kobs/[I] H20S-β5): 9.8 ± 1.3 M⁻¹ s⁻¹
- kinact/KI ([1]; read-out: kobs/[I] Hu20S PA28): 0.4 M⁻¹ s⁻¹
- activity recovered after dialysis (Mtb proteasome [8]): did not restore the activity
- inhibition at 10 µM [9]: ≥ 50%
- cytotoxicity [7]: no evident cytotoxicity
- Hill coefficient (Mtb PrcAB-OG) (Mtb PrcAB-OG [2]): 1
- effect of substrate concentration on rate of inactivation (Mtb PrcAB-OG [2]): Increasing substrate concentration reduced the rate of proteasome inactivation
- kinact/K (Mtb PrcAB-OG [2]; Mtb PrcAB-OG, corrected for substrate competition, […]): 625 ± 12.2^b M^−1s^−1
- kinact/KI (Mtb PrcAB-OG [2]; [11]): 376 M⁻¹ s⁻¹
- kinact/KI (Mtb PrcAB-OG [2]; corrected for substrate competition, read-out: kinact/K for GL5 vs Mtb proteasome): 624 ± 12.2 M⁻¹ s⁻¹
- kinact/KI (Mtb PrcAB-OG [2]; slope of kobs vs [I], not corrected for substrate competition, read-out: apparent value of kobs/[I]): 476 ± 9.3 M⁻¹ s⁻¹
- improvement in species selectivity ratio relative to bortezomib (Mtb PrcAB-OG [10]): ~1160 fold
- selectivity toward Mtb proteasome over human β5 proteasome subunit (Mtb PrcAB-OG [10]): 64 fold
- Ratio (Mtb PrcAB-OG [10]; kobs/[I] Mtb-OG versus Hu20S PA28): 1033
- reduction of number of CFU (Mtb H37Rv; [12]): not if they had been exposed to DETA
- reduction of number of CFU (Mtb H37Rv; [13]): 47 fold
- log reduction at 50 µM (Mtb H37Rv; Mycobacterium tuberculosis, H37RV, 96 h, read-out: Mtb killing (50 μM)): 1.4
- IC50 (α-chymotrypsin): 0.064 µM
- Ki (α-chymotrypsin; reversible, time-independent inhibition): 0.064 µM
- cytotoxicity (human lung fibroblasts): no evident cytotoxicity
- cytotoxicity (human skin fibroblasts): no evident cytotoxicity

Compound: Cc1cccc(-c2nsc(=O)o2)c1 [HT1118]
- log reduction at 25 µM (M. bovis BCG): 0.8
- kinact/KI ([1]; read-out: kobs/[I] Hu20S PA28): 11.3 M⁻¹ s⁻¹
- kinact/KI (Mtb PrcAB-OG [2]; read-out: kobs/[I] Mtb-OG): 133 M⁻¹ s⁻¹
- log reduction at 50 µM (Mtb H37Rv; [14]): 1.7
- IC50 (α-chymotrypsin): 15.8 µM

Compound: Cc1ccc(-c2nsc(=O)o2)s1 [HT1044]
- log reduction at 25 µM (M. bovis BCG): 1.7
- kinact/KI ([1]; read-out: kobs/[I] Hu20S PA28): 148 M⁻¹ s⁻¹
- kinact/KI (Mtb PrcAB-OG [2]; [11]): 1070 M⁻¹ s⁻¹
- log reduction at 50 µM (Mtb H37Rv; [14]): 2
- IC50 (α-chymotrypsin): 8.02 µM

Compound: O=c1oc(-c2cccc([N+](=O)[O-])c2)ns1 [HT1042]
- log reduction at 25 µM (M. bovis BCG): 2
- kinact/KI ([1]; read-out: kobs/[I] Hu20S PA28): 10.3 M⁻¹ s⁻¹
- kinact/KI (Mtb PrcAB-OG [2]; read-out: kobs/[I] Mtb-OG): 729 M⁻¹ s⁻¹
- log reduction at 50 µM (Mtb H37Rv; [14]): 1.7
- IC50 (α-chymotrypsin): 3.14 µM

Compound: CC(C)C[C@H](NC(=O)[C@H](Cc1ccccc1)NC(=O)c1cnccn1)B(O)O [bortezomib, reference compound]
- morphologic sign of cytotoxicity ([5]; 0.5 μM): rounded up or appeared to disintegrate
- activity recovered after dialysis (Mtb proteasome [8]): 70%
- Vero cells remaining viable ([7]; 25 nM, 4-day exposure): less than 10%

Compound: O=c1oc(-c2cc([N+](=O)[O-])cs2)ns1 [HT1016]
- log reduction at 25 µM (M. bovis BCG): > 3
- kinact/KI ([1]; read-out: kobs/[I] Hu20S PA28): 12.3 M⁻¹ s⁻¹
- kinact/KI (Mtb PrcAB-OG [2]; [11]): 732 M⁻¹ s⁻¹
- log reduction at 50 µM (Mtb H37Rv; [14]): 2.2
- IC50 (α-chymotrypsin): 5.87 µM

Compound: COc1cccc(-c2nsc(=O)o2)c1 [HT1054]
- log reduction at 25 µM (M. bovis BCG): > 3
- kinact/KI ([1]; read-out: kobs/[I] Hu20S PA28): 14.8 M⁻¹ s⁻¹
- kinact/KI (Mtb PrcAB-OG [2]; read-out: kobs/[I] Mtb-OG): 636 M⁻¹ s⁻¹
- log reduction at 50 µM (Mtb H37Rv; [14]): 2
- IC50 (α-chymotrypsin): 2.19 µM

Compound: O=c1oc(-c2ccc([N+](=O)[O-])cc2)ns1 [HT1041]
- log reduction at 25 µM (M. bovis BCG): 0.8
- kinact/KI ([1]; read-out: kobs/[I] Hu20S PA28): 12.9 M⁻¹ s⁻¹
- kinact/KI (Mtb PrcAB-OG [2]; read-out: kobs/[I] Mtb-OG): 598 M⁻¹ s⁻¹
- log reduction at 50 µM (Mtb H37Rv; [14]): 1.7
- IC50 (α-chymotrypsin): 2.08 µM

Compound: Cc1sc(-c2nsc(=O)o2)cc1[N+](=O)[O-] [HT1171]
- kinact/KI (Mtb PrcAB-OG [2]; [11]): 3490 M⁻¹ s⁻¹

Compound: O=c1oc(-c2ccccn2)ns1 [HT1043]
- log reduction at 25 µM (M. bovis BCG): 1
- kinact/KI ([1]; read-out: kobs/[I] Hu20S PA28): 0.2 M⁻¹ s⁻¹
- kinact/KI (Mtb PrcAB-OG [2]; read-out: kobs/[I] Mtb-OG): 460 M⁻¹ s⁻¹
- log reduction at 50 µM (Mtb H37Rv; [14]): 1.8
- IC50 (α-chymotrypsin): 16.6 µM

Compound: COc1cc(OC)cc(-c2nsc(=O)o2)c1 [HT1147]
- kinact/KI (Mtb PrcAB-OG [2]; [11]): 45.8 M⁻¹ s⁻¹
- IC50 (α-chymotrypsin): 83.9 µM

Compound: O=c1oc(-c2cccc(F)c2)ns1 [HT1071]
- log reduction at 25 µM (M. bovis BCG): > 3
- kinact/KI ([1]; read-out: kobs/[I] Hu20S PA28): 31.3 M⁻¹ s⁻¹
- kinact/KI (Mtb PrcAB-OG [2]; read-out: kobs/[I] Mtb-OG): 1060 M⁻¹ s⁻¹
- log reduction at 50 µM (Mtb H37Rv; [14]): 2.2
- IC50 (α-chymotrypsin): 2.67 µM

Compound: O=c1oc(-c2ccco2)ns1 [HT1113]
- log reduction at 25 µM (M. bovis BCG): 1
- kinact/KI ([1]; read-out: kobs/[I] Hu20S PA28): 10.1 M⁻¹ s⁻¹
- kinact/KI (Mtb PrcAB-OG [2]; [11]): 435 M⁻¹ s⁻¹
- log reduction at 50 µM (Mtb H37Rv; [14]): 2
- IC50 (α-chymotrypsin): 22.7 µM

Compound: O=c1oc(-c2cccc(C(F)(F)F)c2)ns1 [HT1086]
- kinact/KI ([1]; read-out: kobs/[I] Hu20S PA28): 0.4 M⁻¹ s⁻¹
- kinact/KI (Mtb PrcAB-OG [2]; [11]): 155 M⁻¹ s⁻¹
- IC50 (α-chymotrypsin): 48.1 µM

Compound: Cc1ccc(-c2nsc(=O)o2)cc1 [HT1117]
- kinact/KI ([1]; read-out: kobs/[I] Hu20S PA28): 53.4 M⁻¹ s⁻¹
- kinact/KI (Mtb PrcAB-OG [2]; [11]): 433 M⁻¹ s⁻¹
- IC50 (α-chymotrypsin): 3.67 µM

Compound: C[C@@]12OC(=O)[C@]1([C@@H](O)[C@@H]1C=CCCC1)NC(=O)[C@@H]2CCCl [NPI-0052]
- activity recovered after dialysis (Mtb proteasome [8]): did not restore the activity

Source: patent US20110118274A1, “PROTEASOME INHIBITORS AND THEIR USE IN TREATING PATHOGEN INFECTION AND CANCER” (CORNELL RESEARCH FOUNDATION, INC., priority 2007, published 2011)
